Results: patent US20240069044A1, “METHOD FOR DIAGNOSING A PREDISPOSITION OF A LIVING BEING TO DEVELOP THROMBOCYTOPENIA” (priority 2021, published 2024)

What was measured:
[1] = tested on: platelets from healthy donors; test: IgG binding to platelets by flow cytometry after incubation with VITT sera; format: cell-based
[2] = tested on: washed platelets from healthy donors; test: Antibody-mediated procoagulant platelets (CD62p/PS positive) by flow cytometry, VITT sera; format: cell-based; details: for FI CD62p/PS positive PLTs: VITT sera with washed platelets, 0.2 IU/mL LMWH, high concentration UFH, mAb IV.3, high concentrations of IgG, PF4 or Spike-RBD, sera alone 22.94±6.14
[3] = tested on: washed platelets from healthy donors; test: Heparin induced platelet activation assay (HIPA) with modifications, VITT sera; format: cell-based; details: for platelet activation by VITT sera in the presence of the additive: result in words
Protocol: (§1) A commercially available IgG-Enzyme Immune Assay (EIA) was used in accordance to manufacturer's instructions (Hyphen Biomed, Neuville-sur-Oise, France). Per manufacturer's recommendations, a sample was considered reactive if the optical density (OD) was ≥0.500. The ability of sera to activate platelets was tested using the functional assay heparin induced platelet aggregation assay (HIPA) as previously described. In brief, serum was tested with washed platelets (wPLTs) from four different healthy donors in the absence (buffer alone) or in the presence of unfractionated heparin (0.2 IU/mL and 100 IU/mL, [Ratiopharm, Ulm, Germany]). Reactions were placed in microtiter wells containing spherical stir bars and stirred at approximately 500 revolutions per minute (rpm). Wells were examined optically at five-minutes (min) interval for loss of turbidity. A serum was considered reactive (positive) if a shift from turbidity to transparency occurred within 30 min in at least two platelet suspensions. Observation time was 45 min. Each test included a diluted serum from a patient with HIT as a weak positive control, collagen (5 μg/mL) as strong positive control and a serum from a healthy donor as a negative control.
To investigate the ability of patients sera to activate platelets, the HIPA assay was used with several modifications. Sera were incubated with washed platelets in the presence of I) buffer, II) 0.2 IU/mL LMWH, III) 100 IU/mL UFH, IV) an Fc gamma receptor IIa (FcγRIIA)-blocking monoclonal antibody (mAb IV.3), VI) 30 mg/mL IVIG, VII) 25 μg/mL PF4, VIII) 50 μg/mL Spike-RBD, IX) PF4/Spike-RBD complexes, X) PF4+RBD or XI) ChAdOx1 nCoV-19 (XII). Conditions with PF4 and RBD were also repeated in the presence of high concentration of heparin (100 IU/mL UFH). […] (FIG. 5B). […] Antibody-mediated platelet activation was inhibited when low molecular weight heparin (LMWH) was added at low concentrations by testing three sera.

[4] = tested on: PRP from healthy individuals; test: Procoagulant platelets in platelet rich plasma (PRP) with patient sera/HIT IgG, flow cytometry; format: cell-based; details: for procoagulant PLT formation by HIT IgG fractions: PRP
Protocol: IgG fractions were isolated from HIT as well as from control sera by the use of a commercially available IgG-purification-kit (Melon™-Gel IgG Spin Purification Kit, Thermo Fisher Scientific, Waltham, USA) as recommended by the manufacturers. In brief, heat inactivated serum was diluted 1:10 in purification buffer and incubated with the kit specific Gel IgG Purification Support over four cycles for 10 min. Subsequently, periodically performed centrifugation steps through a 10 μm pore size filter tube were performed for 1 min at 5000×g. The flow throw was collected into 100 kDa pore sized centrifugal filters (Amicon Ultra-4, Merck Millipore, Cork, Ireland) with subsequent concentration to the initial volume of the used serum sample via centrifugation (10-15 min, 2000×g, 4° C., with brake). IgG concentrations were measured by excitation using a NanoDrop One at a wavelength of […] (VWR, Bruchsal, Germany).
For determination of procoagulant platelets in PRP, sera were prepared as described above. For PRP preparation, venous blood from healthy individuals was withdrawn into vacutainers containing sodium citrate 0.105 M (3.2%) (BD, Plymouth, UK) and allowed to rest for 20 min at RT. PRP was prepared by centrifugation (20 min, 120 g, RT) and adjusted with autologous platelet poor plasma (PPP, [10 min, 2000 g, RT]) to a PLT count of 300×10^6/ml. […] Afterwards, samples were processed as described for washed PLTs and analysed by flow cytometry (FC). Test results were determined as fold increase of the percentage of double PS/CD62p positive events in platelets upon incubation with patients' sera compared to the baseline.
37.5 μl wPLTs/PRP were supplemented with 1 μl of 10 IUs heparin (final concentration 0.2 IUs) or 1 μl of 5000 IUs heparin (final concentration 100 IUs) and 5 μL serum/IgG from HIT patients or control serum/IgG. […] Afterwards, PLTs were resuspended with HBSS to a final volume of 500 μL and immediately assessed via flow cytometry ([FC]), Navios, Beckman-Coulter, Brea, USA).

[5] = tested on: washed platelets from healthy donors; test: Procoagulant platelets induced by HIT patient sera, washed platelets, flow cytometry; format: cell-based; details: for generation of procoagulant platelets by patient sera in the presence of the additive: HIT, washed platelets (FIG. 8) or PRP (FIG. 9), 0.2 IU/mL LMWH, high concentration UFH, PF4, IV.3, result in words
Protocol: Prior to usage, all sera were heat-inactivated at 56° C. for 30 min, followed by a sharp centrifugation step at 5,000 g. The supernatant was collected in a fresh tube. For determination of procoagulant platelets, 5 μL serum was incubated with 25 μL washed platelets ([…]) for 1 h under rotating conditions at RT. Where indicated, cell suspensions were preincubated with PF4 (10 μg/ml) and Heparin (0.2 or 100 IU/ml). Afterwards, samples were washed once (7 min, 650 g, RT, without brake) and gently resuspended in 75 μL of phosphate-buffered saline (PBS, Biochrom, Berlin, Germany). Platelets were then stained with Annexin V-FITC and CD62-APC (Immunotools, Friesoythe Germany) and directly analyzed by flow cytometry (FC). Test results were determined as fold increase of the percentage of double PS/CD62p positive events in platelets upon incubation with patients' sera compared to the baseline.
37.5 μl wPLTs/PRP were supplemented with 1 μl of 10 IUs heparin (final concentration 0.2 IUs) or 1 μl of 5000 IUs heparin (final concentration 100 IUs) and 5 μL serum/IgG from HIT patients or control serum/IgG. Samples were filled up with PBS to a final volume of 50 μl and incubated for 1 hour under rotating conditions at RT. Afterwards, 5 μl of the PLT suspension were transferred into a final volume of 100 μL of Hank's balanced salt solution (HBSS) containing 137 mM NaCl, 1.25 mM CaCl2), 5.5 mM glucose, [Carl-Roth, Karlsruhe, Germany]) and incubated with 1 μL anti-CD62p-APC (BD, San Jose, USA), 1 μL Annexin-FITC (Immunotools, Friesoythe, Germany) and 2 μL anti-CD42a-PerCP (BD, San Jose, USA) for 30 min at RT in the dark. PLTs that were treated with thrombin receptor activating peptide (TRAP-6, [10 μM, 30 min at RT]) and ionomycin [5 μM, 15 min at RT] (both Sigma-Aldrich, St. Louis, USA) served as positive controls. Afterwards, PLTs were resuspended with HBSS to a final volume of 500 μL and immediately assessed via flow cytometry ([FC]), Navios, Beckman-Coulter, Brea, USA).
To investigate the mechanisms of HIT antibody-induced changes on PLTs, […] wPLTs/PRP were pretreated with Fc-gamma-RIIA blocking monoclonal antibody (moAb) anti-CD32 (moAb IV.3; Stemcell™ technologies, Vancouver, Canada) or a monoclonal isotype control ([SC-2025] Santa Cruz Biotechnology, Dallas, USA) for 30 min at RT prior to HIT serum/IgG treatment.

[6] = biological target: T1, PF4/heparin complexes (Homo sapiens, UniProt P02776); test: IgG PF4/heparin EIA with sera from VITT patients; format: binding; details: VITT sera (8/8), in the presence of high concentration of heparin; without: 2.591±0.642; p<0.0001
T1 construct: purchased Hyphen Biomed, Neuville-sur-Oise, France
T1 sequence (P02776 32-101): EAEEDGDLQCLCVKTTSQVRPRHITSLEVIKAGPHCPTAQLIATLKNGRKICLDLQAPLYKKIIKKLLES
Protocol: as §1

| Substance | change in IgG binding to platelets in the presence of the additive ([1]; result in words) | FI CD62p/PS positive PLTs [2] | procoagulant phenotype induced by diluted VITT sera ([2]; diluted sera (from 1:64), result in words) | Median time to aggregate ([3]; VITT sera with washed platelets, 0.2 IU/mL LMWH, 25 μg/mL PF4, mAb IV.3 or 30 mg/mL IVIG, buffer alone 5 min, observation time 45 min) | platelet activation by VITT sera in the presence of the additive [3] | procoagulant phenotype, sera from HIPA negative patients with PRP ([4]; in presence of PF4, when treated with 0.2 IU/ml Heparin (LMWH)) | generation of procoagulant platelets by patient sera in the presence of the additive [5] | FI of MFI IgG binding to platelets ([1]; heparin at high concentrations (100 IU/ml), without heparin 4.39±1.15, p 0.016) | FI of MFI of IgG binding to platelets ([1]; heparin at low concentrations (0.2 U/mL), without heparin 4.39±1.15, p 0.688) | mean optical density [OD] of IgG antibodies against PF4/heparin complexes [6] | procoagulant PLT formation by HIT IgG fractions ([4]; supratherapeutic (100 IUs) doses of heparin) | procoagulant PLT formation by HIT IgG fractions ([4]; therapeutic doses (0.2 IUs) heparin) | CD62p/PS positive PLTs, mean %±SEM ([5]; HIT sera with wPLTs, supratherapeutic (Hep. 100 IUs) doses of heparin) | CD62p/PS positive PLTs, mean percent [mean %]±SEM ([5]; HIT sera with wPLTs, therapeutic (0.2 IUs) heparin, HC sera 1±0) |
| --- | --- | --- | --- | --- | --- | --- | --- | --- | --- | --- | --- | --- | --- | --- |
| PF4: small cytokine of the CXC chemokine family released from alpha-granules of activated platelets | Only one serum showed increased binding | 37.07±23.73 fold increase | only in the presence e of PF4 | 5 min | only in the presence e of PF4 | Strong increase | increase of procoagulant platelets | – | – | – | – | – | – | – |
| heparin | – | 1.92±0.96 fold increase | – | – | All reactions were inhibited | – | completely inhibited | 1.51±0.66 fold increase | 3.60±2.01 fold increase | 0.176±0.073 OD | not observed | showed the capability to induce procoagulant PLTs | 1.18±0.28% | 44.99±6.26% |
